Measurements as given in the supplement of paper PMC11451515.

What was measured:
Assay in all cases: AUC of viability dose-response curve (% viability x log10 dose units); higher = less sensitive
Conditions in all cases: 48 h
NOMO1 = test system: NOMO1
How it was run: (§1)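 Leukemia cells adapted to each medium (500 or 1000 cells/well, 1536-well plates) were exposed to library compounds in DMSO for 48 h at 37°C at 11 threefold doses, 47 μM to 0.79 nM. Luminescence by CellTiter-Glo One was normalised per plate to DMSO and cell-free wells, then fitted with a four-parameter log-logistic curve on log10 dose. Curves above full viability were scaled and quality-control failures removed before area under the curve was integrated by trapezoidal rule.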

P12-Ichikawa = test system: P12-Ichikawa
How it was run: as §1

SEM cells = test system: SEM cells
How it was run: as §1

[1] = RPMI 5 mM glucose + 10% dialyzed FBS

| SMILES | AUC of viability dose-response curve (NOMO1; HPLM + 10% dialyzed FBS) | AUC of viability dose-response curve (NOMO1; RPMI 5 mM glucose + 10% FBS) | AUC of viability dose-response curve (NOMO1; [1]) | AUC of viability dose-response curve (P12-Ichikawa; HPLM + 10% dialyzed FBS) | AUC of viability dose-response curve (P12-Ichikawa; RPMI 5 mM glucose + 10% FBS) | AUC of viability dose-response curve (P12-Ichikawa; [1]) | AUC of viability dose-response curve (SEM cells; HPLM + 10% dialyzed FBS) | AUC of viability dose-response curve (SEM cells; RPMI 5 mM glucose + 10% FBS) | AUC of viability dose-response curve (SEM cells; [1]) |
| --- | --- | --- | --- | --- | --- | --- | --- | --- | --- |
| COc1cc(NC(=O)c2ccc(-c3ccc(Cl)cc3)o2)cc(OC)c1 | 412 | 432 | 418 | 471 | 472 | 472 | 457 | 465 | 463 |
| Nc1nc(Nc2ccc([S+](N)(=O)[O-])cc2)nn1C(=O)c1c(F)cccc1F | 437 | 410 | 402 | 455 | 435 | 439 | 397 | 407 | 399 |
| CCc1cccc2c3c([nH]c12)C(CC)(CC(=O)O)OCC3 (stereo not given) | 452 | 441 | 427 | 466 | 448 | 465 | 454 | 409 | 448 |
| COC(=O)Nc1ccc(-c2nc(N3CCOCC3)c3cnn(C4CCN(Cc5cccnc5)CC4)c3n2)cc1 | 298 | 361 | 319 | 355 | 323 | 314 | 292 | 242 | 249 |
| COc1ccccc1OCCNCC(O)COc1cccc2[nH]c3ccccc3c12 (stereo not given) | 476 | 465 | 474 | 461 | 468 | 468 | 467 | 463 | 467 |
| CN(CCOc1ccc(NS(C)(=O)=O)cc1)CCc1ccc(NS(C)(=O)=O)cc1 | 451 | 455 | 463 | 469 | 465 | 464 | 444 | 463 | 447 |
| C=C[C@H]1CN2CCC1C[C@@H]2[C@@H](O)c1ccnc2ccccc12 (stereo not given in full) | 453 | 422 | 420 | 443 | 436 | 429 | 448 | 435 | 451 |
| CC(Cc1ccc(O)c(O)c1)(NN)C(=O)O (stereo not given) | 475 | 453 | 442 | 448 | 467 | 465 | 469 | 466 | 468 |
| CCCOc1ccc2[nH]c(NC(=O)OC)nc2c1 | 286 | 259 | 273 | 226 | 217 | 257 | 240 | 169 | 199 |
| NC/1=N/C(=O)N(C[C@@H](CO)OC[P](O)(O)=O)/C=C1 | 421 | 460 | 475 | 458 | 443 | 460 | 455 | 466 | 439 |
| C[C@@H](NCc1cc2ccccc2[nH]1)c1cccc2ccccc12 | 443 | 428 | 449 | 441 | 434 | 414 | 409 | 406 | 413 |
| CC(C)C(=O)Nc1ncc(-c2cc(C(F)F)nn2-c2c(Cl)cccc2Cl)s1 | 468 | 472 | 460 | 465 | 460 | 463 | 458 | 465 | 463 |
| O=C1CCC[C@@H]2[C@H]3CCC[N+]4([O-])CCC[C@@H](CN12)[C@@H]34 (stereo not given in full) | 364 | 374 | 369 | 463 | 435 | 422 | 373 | 406 | 398 |
| O=[S+]([O-])(CCSSCC[S+](=O)([O-])[O][Na])[O][Na] | 432 | 428 | 450 | 461 | 451 | 472 | 423 | 457 | 438 |
| CC1=CC=C2\N=C/3N(CC[C@@]3(O)C(=O)C2=C1)C4=CC=CC=C4 | 452 | 403 | 425 | 442 | 420 | 400 | 431 | 438 | 413 |
| CCOC(CN1C(=O)[C@](CC(=O)Nc2ccc(C)cc2)(NC(=O)Nc2ccc(C)cc2)c2ccccc21)OCC | 448 | 460 | 458 | 458 | 461 | 460 | 447 | 437 | 466 |
| NC1CCC(Nc2nc(Nc3ccc(C(=O)N4CCCCC4)cc3)c3ncn(-c4cccc(F)c4)c3n2)CC1 (stereo not given) | 437 | 457 | 470 | 429 | 459 | 439 | 436 | 435 | 426 |
| CCc1c(O)cc(O)c(C(=O)c2ccc(OCCN3CCOCC3)c(OC)c2)c1CC(=O)N(CCOC)CCOC | 359 | 367 | 375 | 399 | 384 | 383 | 383 | 347 | 355 |
| O=C(NCCO[N+](=O)[O-])c1cccnc1 | 463 | 472 | 471 | 471 | 474 | 475 | 461 | 455 | 461 |
| CCCCCCCCOc1ccccc1C(=O)Nc1ccc(C(=O)OCC[N+](C)(CC)CC)cc1 | 446 | 401 | 413 | 437 | 444 | 408 | 435 | 414 | 460 |
